# Measured values taken from patent publication US8076359B2, “Renin inhibitors” (Merck Canada Inc., priority 2006, dated 2011).
# Legend:
# renin in human plasma = biological target: T1, renin in human plasma (Homo sapiens, UniProt P00797); test: Inhibition of renin in human plasma (enzymatic in vitro assay, Ang I detected by EIA); assay type: biochemical; conditions: human plasma from 10 normal donors; human recombinant renin 3 pM; 37° C. for 2 h
# T1 construct: host or cells: recombinant enzyme added to human plasma from 10 normal donors
# T1 sequence (P00797 67-406): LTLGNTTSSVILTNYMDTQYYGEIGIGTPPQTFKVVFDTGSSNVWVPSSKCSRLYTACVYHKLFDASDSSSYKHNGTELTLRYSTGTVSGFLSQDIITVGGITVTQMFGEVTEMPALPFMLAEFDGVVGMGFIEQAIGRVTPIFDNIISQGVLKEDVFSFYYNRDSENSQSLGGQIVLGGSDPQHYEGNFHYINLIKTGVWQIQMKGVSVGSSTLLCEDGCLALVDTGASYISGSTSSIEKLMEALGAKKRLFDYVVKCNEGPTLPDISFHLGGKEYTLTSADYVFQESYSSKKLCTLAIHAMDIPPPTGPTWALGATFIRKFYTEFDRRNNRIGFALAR
# Procedure: Inhibition of Renin in Human Plasma
# The enzymatic in vitro assay was performed in 384-well polypropylene plates (Nunc). The assay buffer consisted of PBS (Gibco BRL) including 1 mM EDTA and 0.1% BSA. The reaction mixture was composed of 80 μL per well of human plasma, enzyme, Ang I-antibodies mix and 5 μL of renin inhibitors in DMSO. The human plasma mix was premixed at 4° C. and consists of • human plasma from 10 normal donors • human recombinant renin (3 pM) • Ang I-antibodies. The mixtures were then incubated at 37° C. for 2 h.
# To determine the enzymatic activity and its inhibition, the accumulated Ang I was detected by an enzyme immunoassay (EIA) in 384-well plates (Nunc). 10 μL of the reaction mixture or standards were transferred to immuno plates which were previously coated with a covalent complex of Ang I and bovine serum albumin (Ang I-BSA). 70 μL assay buffer were added and the plates were incubated at 4° C. overnight. The plates were washed 3 times with PBS including 0.01% Tween 20, and then incubated for 2 h at RT with an anti rabbit-peroxidase coupled antibody (WA 934, Amersham).
# human recombinant renin = biological target: T2, human recombinant renin (Homo sapiens, UniProt P00797); test: Inhibition of human recombinant renin (enzymatic in vitro assay in buffer, Ang I detected by EIA); assay type: biochemical; conditions: assay buffer PBS, 1 mM EDTA, 0.1% BSA; human recombinant renin 40 pM; 37° C. for 3 h
# T2 sequence (P00797 67-406): T1 sequence (P00797 67-406)
# Procedure: Inhibition of Human Recombinant Renin
# The enzymatic in vitro assay was performed in 384-well polypropylene plates (Nunc). The assay buffer consisted of PBS (Gibco BRL) including 1 mM EDTA and 0.1% BSA. The reaction mixture were composed of 47.5 μL per well of an enzyme mix and 2.5 μL of renin inhibitors in DMSO. The enzyme mix was premixed at 4° C. and consists of the following components: • human recombinant renin (40 pM) • synthetic human angiotensin(1-14) (0.5 μM) • hydroxyquinoline sulfate (1 mM) The mixtures were then incubated at 37° C. for 3 h. The enzyme reaction was stopped by placing the reaction plate on wet ice.
# To determine the enzymatic activity and its inhibition, the accumulated Ang I was detected by an enzyme immunoassay (EIA) in 384-well plates (Nunc). 5 μL of the reaction mixture or standards were transferred to immuno plates which were previously coated with a covalent complex of Ang I and bovine serum albumin (Ang I-BSA). 75 μL of Ang I-antibodies in assay buffer above including 0.01% Tween 20 were added and the plates were incubated at 4° C. overnight.
# An alternative protocol could be used by stopping the enzymatic reaction with 0.02N final concentration of HCl. 5 μL of the reaction mixture or standards were transferred to immuno plates and 75 μL of Ang I-antibodies in assay buffer above including 0.01% Tween 20 were added and the plates were incubate at RT for 4 h. […]
SMILES,IC50 (renin in human plasma) [nM],IC50 (human recombinant renin) [nM]
COCCCc1cc(CN(C(=O)[C@H]2CNCC[C@@H]2c2ccc(OCCOc3c(Cl)cc(C)cc3Cl)cc2)C2CC2)cc(OC[C@@H]2C[C@H]2CO)c1 [Example 8],2.6,0.036
"COCCCc1cc(CN(C(=O)[C@H]2CNCC[C@@H]2c2ccc(OCCOc3c(Cl)cc(C)cc3Cl)nc2)C2CC2)cc(OCCOC)c1 [Example 2, (3R,4S)-N-Cyclopropyl-4-{6-[2-(2,6-dichloro-4-methylphenoxy)ethoxy]pyridin-3-yl}-N-[3-(2-methoxyethoxy)-5-(3-methoxypropyl)benzyl]piperidine-3-carboxamide]",6,0.022
